Measured values as given in PubChem BioAssay AID330 (DTP/NCI, 2004).
Several values for one entry are separate records, joined by “and”; a condition that tells them apart may be missing. Equal values may be shown once. Toxic doses and inconclusive results are not listed. How the source made its calls: active means survival T/C of 150% or more; inactive means T/C below 125% in these data.

System: P388 leukemia ip, CD2F1 mice, survival T/C
Assay: NCI In Vivo Anticancer Drug Screen. Data for tumor model P388 Leukemia (intraperitoneal) in CD2F1 (CDF1) mice
Details: endpoint: median survival time, higher = longer survival
Summary of the method: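 Mice carrying the transplanted tumor received test compound or vehicle. Survival was recorded in each group, and the value is the treated-group measurement divided by that of the vehicle-treated control group.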

Measured: T/C

ClCC[N+]12CC[N+](CCCl)(CC1)C2
234 % of control and 90 % of control: dose: 200.0 mg/kg/injection, schedule: Q01DX009 (ip), vehicle: saline
120 % of control and 233 % of control: dose: 200.0 mg/kg/injection, schedule: Q01DX009 (ip), vehicle: saline with Tween-80
active: dose: 30.0 mg/kg/injection, schedule: Q01DX005 (ip), vehicle: water 163 % of control | dose: 44.0 mg/kg/injection, schedule: Q01DX009 (ip), vehicle: water 158 % of control | dose: 47.42 mg/kg/injection, schedule: Q01DX009 (ip), vehicle: water 160 % of control | dose: 50.0 mg/kg/injection, schedule: Q01DX009 (ip), vehicle: saline 162 % of control and 180 % of control | dose: 60.0 mg/kg/injection, schedule: Q01DX005 (ip), vehicle: water 154 % of control and 170 % of control | dose: 60.0 mg/kg/injection, schedule: Q01DX009 (ip), vehicle: water 155 % of control | dose: 66.0 mg/kg/injection, schedule: Q01DX009 (ip), vehicle: water 167 % of control | dose: 71.12 mg/kg/injection, schedule: Q01DX009 (ip), vehicle: clinical formulation 173 % of control | dose: 71.12 mg/kg/injection, schedule: Q01DX009 (ip), vehicle: water 177 % of control and 165 % of control | dose: 100.0 mg/kg/injection, schedule: Q01DX005 (ip), vehicle: water 155 % of control | dose: 100.0 mg/kg/injection, schedule: Q01DX009 (ip), vehicle: saline with Tween-80 189 % of control and 198 % of control and 213 % of control | dose: 100.0 mg/kg/injection, schedule: Q01DX009 (ip), vehicle: saline 153 % of control and 163 % of control and 182 % of control | dose: 100.0 mg/kg/injection, schedule: Q04DX003 (ip), vehicle: distilled water + Tween-80 151 % of control | dose: 100.0 mg/kg/injection, schedule: Q04DX003 (ip), vehicle: saline with Tween-80 154 % of control | dose: 106.68 mg/kg/injection, schedule: Q01DX009 (ip), vehicle: water 214 % of control | dose: 120.0 mg/kg/injection, schedule: Q01DX005 (ip), vehicle: water 184 % of control | dose: 160.0 mg/kg/injection, schedule: Q01DX009 (ip), vehicle: water 231 % of control | dose: 200.0 mg/kg/injection, schedule: Q01DX009 (ip), vehicle: water 180 % of control | dose: 200.0 mg/kg/injection, schedule: Q04DX003 (ip), vehicle: distilled water + Tween-80 171 % of control | dose: 200.0 mg/kg/injection, schedule: Q04DX003 (ip), vehicle: saline with Tween-80 186 % of control and 190 % of control | dose: 264.0 mg/kg/injection, schedule: Q04DX003 (ip), vehicle: saline with Tween-80 227 % of control | dose: 400.0 mg/kg/injection, schedule: Q01DX001 (ip), vehicle: saline with Tween-80 159 % of control
inactive: dose: 6.25 mg/kg/injection, schedule: Q01DX006 (ip), vehicle: water 120 % of control | dose: 6.25 mg/kg/injection, schedule: Q01DX009 (ip), vehicle: distilled water + Tween-80 117 % of control | dose: 6.25 mg/kg/injection, schedule: Q01DX009 (ip), vehicle: water 115 % of control [middle of 4 runs] | dose: 7.5 mg/kg/injection, schedule: Q01DX005 (iv), vehicle: clinical formulation 105 % of control | dose: 7.5 mg/kg/injection, schedule: Q01DX005 (iv), vehicle: water 100 % of control and 106 % of control | dose: 12.5 mg/kg/injection, schedule: Q01DX006 (ip), vehicle: water 101 % of control | dose: 12.5 mg/kg/injection, schedule: Q01DX009 (ip), vehicle: saline 105 % of control | dose: 12.5 mg/kg/injection, schedule: Q01DX009 (ip), vehicle: water 100 % of control and 104 % of control and 107 % of control | dose: 15.0 mg/kg/injection, schedule: Q01DX005 (iv), vehicle: clinical formulation 105 % of control | dose: 15.0 mg/kg/injection, schedule: Q01DX005 (iv), vehicle: water 99 % of control and 110 % of control | dose: 15.0 mg/kg/injection, schedule: Q01DX009 (ip), vehicle: clinical formulation 100 % of control | dose: 15.0 mg/kg/injection, schedule: Q01DX009 (ip), vehicle: water 99 % of control and 116 % of control | dose: 20.0 mg/kg/injection, schedule: Q01DX005 (ip), vehicle: water 106 % of control | dose: 21.08 mg/kg/injection, schedule: Q01DX009 (ip), vehicle: water 115 % of control and 103 % of control | dose: 23.71 mg/kg/injection, schedule: Q01DX005 (iv), vehicle: clinical formulation 105 % of control | dose: 23.71 mg/kg/injection, schedule: Q01DX005 (iv), vehicle: water 110 % of control and 105 % of control | dose: 25.0 mg/kg/injection, schedule: Q01DX006 (ip), vehicle: water 113 % of control | dose: 25.0 mg/kg/injection, schedule: Q01DX009 (ip), vehicle: water 109 % of control and 115 % of control | dose: 30.0 mg/kg/injection, schedule: Q01DX001 (ip), vehicle: water 113 % of control | dose: 30.0 mg/kg/injection, schedule: Q01DX001 (iv), vehicle: water 109 % of control | dose: 30.0 mg/kg/injection, schedule: Q01DX005 (iv), vehicle: clinical formulation 109 % of control | dose: 30.0 mg/kg/injection, schedule: Q01DX005 (iv), vehicle: water 113 % of control | dose: 30.0 mg/kg/injection, schedule: Q01DX005 (oral), vehicle: water 110 % of control | dose: 30.0 mg/kg/injection, schedule: Q01DX009 (ip), vehicle: clinical formulation 100 % of control | dose: 30.0 mg/kg/injection, schedule: Q01DX009 (ip), vehicle: water 123 % of control | dose: 30.0 mg/kg/injection, schedule: Q01DX009 (oral), vehicle: water 120 % of control | dose: 31.61 mg/kg/injection, schedule: Q01DX009 (ip), vehicle: water 119 % of control | dose: 35.56 mg/kg/injection, schedule: Q01DX005 (iv), vehicle: clinical formulation 111 % of control | dose: 35.56 mg/kg/injection, schedule: Q01DX005 (iv), vehicle: water 110 % of control and 106 % of control | dose: 40.0 mg/kg/injection, schedule: Q01DX005 (ip), vehicle: water 114 % of control | dose: 50.0 mg/kg/injection, schedule: Q01DX006 (ip), vehicle: water 123 % of control | dose: 50.0 mg/kg/injection, schedule: Q01DX009 (ip), vehicle: saline with Tween-80 100 % of control | dose: 50.0 mg/kg/injection, schedule: Q01DX009 (ip), vehicle: water 113 % of control and 120 % of control | dose: 50.0 mg/kg/injection, schedule: Q04DX003 (ip), vehicle: distilled water + Tween-80 124 % of control | dose: 53.34 mg/kg/injection, schedule: Q01DX005 (iv), vehicle: water 115 % of control and 111 % of control | dose: 60.0 mg/kg/injection, schedule: Q01DX001 (ip), vehicle: water 115 % of control | dose: 60.0 mg/kg/injection, schedule: Q01DX001 (iv), vehicle: water 117 % of control | dose: 60.0 mg/kg/injection, schedule: Q01DX001 (oral), vehicle: water 109 % of control | dose: 60.0 mg/kg/injection, schedule: Q01DX005 (iv), vehicle: clinical formulation 120 % of control | dose: 60.0 mg/kg/injection, schedule: Q01DX005 (oral), vehicle: water 119 % of control | dose: 80.0 mg/kg/injection, schedule: Q01DX005 (iv), vehicle: clinical formulation 122 % of control | dose: 80.0 mg/kg/injection, schedule: Q01DX005 (iv), vehicle: water 119 % of control and 112 % of control | dose: 100.0 mg/kg/injection, schedule: Q01DX009 (oral), vehicle: saline with Tween-80 112 % of control | dose: 120.0 mg/kg/injection, schedule: Q01DX001 (oral), vehicle: water 114 % of control | dose: 150.0 mg/kg/injection, schedule: Q01DX009 (ip), vehicle: water 99 % of control | dose: 178.0 mg/kg/injection, schedule: Q01DX001 (ip), vehicle: saline with Tween-80 124 % of control | dose: 240.0 mg/kg/injection, schedule: Q01DX001 (oral), vehicle: water 117 % of control | dose: 240.0 mg/kg/injection, schedule: Q01DX009 (ip), vehicle: water 87 % of control

CCCCCCCCCCNC(=O)C[n+]1cccc(C(=O)NCc2ccccc2)c1
inactive: dose: 3.13 mg/kg/injection, schedule: Q01DX009 (ip), vehicle: saline with Tween-80 100 % of control | dose: 6.25 mg/kg/injection, schedule: Q01DX009 (ip), vehicle: saline with Tween-80 95 % of control | dose: 12.5 mg/kg/injection, schedule: Q01DX009 (ip), vehicle: saline with Tween-80 90 % of control
